# PubChem BioAssay (NCI)
#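 A five-concentration, 48-hour dose response in 96-well plates underlies each endpoint, interpolated linearly between surrounding concentrations. TGI denotes the concentration required for complete inhibition of growth.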
# Legend:
# Experiment in all cases: NCI anticancer screen, dose series, 48 h
# [1] = system: MDA-MB-435
# [2] = system: SF-268 CNS
# [3] = system: ACHN renal
# [4] = system: MCF7 breast
# [5] = system: NCI/ADR-RES ovarian
# [6] = system: BT-549 breast
# [7] = system: EKVX NSCLC
# [8] = system: RPMI-8226 leukemia
# [9] = system: HCT-15 colon
# [10] = system: RXF 393 renal
# [11] = system: CAKI-1 renal
# [12] = system: SK-OV-3 ovarian
# [13] = system: COLO 205 colon
# [14] = system: UACC-62 melanoma
# [15] = system: OVCAR-5 ovarian
# [16] = system: SNB-19 CNS
# [17] = system: CCRF-CEM leukemia
# [18] = system: SF-539 CNS
# [19] = system: UO-31 renal
# [20] = system: MDA-N
# [21] = system: T-47D breast
# [22] = system: SK-MEL-28 melanoma
# [23] = system: NCI-H522 lung
# [24] = system: MOLT-4 leukemia
# [25] = system: IGROV1 ovarian
# [26] = system: SK-MEL-2 melanoma
# [27] = system: HT29 colon
# [28] = system: MDA-MB-231 breast
# [29] = system: A549 NSCLC
# [30] = system: KM12 colon
# [31] = system: OVCAR-8 ovarian
# [32] = system: HL-60(TB) leukemia
# [33] = system: UACC-257 melanoma
# [34] = system: OVCAR-3 ovarian
# [35] = system: SNB-75 CNS
# [36] = system: HOP-92 NSCLC
# [37] = system: MALME-3M melanoma
# [38] = system: DU-145 prostate
# [39] = system: NCI-H460 lung
# [40] = system: SW-620 colon
# [41] = system: SK-MEL-5 melanoma
# [42] = system: SF-295 CNS
# [43] = system: U251 CNS
# [44] = system: HOP-62 NSCLC
# [45] = system: 786-0 renal
# [46] = system: NCI-H23 lung
# [47] = system: M14 melanoma
# [48] = system: SN12C renal
# [49] = system: HCT-116 colon
# [50] = system: HS 578T breast
# [51] = system: A498 renal
# [52] = system: PC-3 prostate
# [53] = system: LOX IMVI melanoma
# [54] = system: SR leukemia
# [55] = system: OVCAR-4 ovarian
# [56] = system: K-562 leukemia
# [57] = system: NCI-H226 lung
smiles,measurement,setting,value
COC(=O)Nc1nc2ccc(S(=O)(=O)n3nnc4ccccc43)cc2[nH]1,TGI,[1],> 100 µM
same,TGI,[2],> 100 µM
same,TGI,[3],> 100 µM
same,TGI,[4],> 100 µM
same,TGI,[5],> 100 µM
same,TGI,[6],48.1 µM
same,TGI,[7],> 100 µM
same,TGI,[8],> 100 µM
same,TGI,[9],> 100 µM
same,TGI,[10],36.1 µM
same,TGI,[11],> 100 µM
same,TGI,[12],41.2 µM
same,TGI,[13],> 100 µM
same,TGI,[14],> 100 µM
same,TGI,[15],> 100 µM
same,TGI,[16],> 100 µM
same,TGI,[17],> 100 µM
same,TGI,[18],24.4 µM
same,TGI,[19],> 100 µM
same,TGI,[20],> 100 µM
same,TGI,[21],> 100 µM
same,TGI,[22],> 100 µM
same,TGI,[23],> 100 µM
same,TGI,[24],> 100 µM
same,TGI,[25],> 100 µM
same,TGI,[26],> 100 µM
same,TGI,[27],> 100 µM
same,TGI,[28],> 100 µM
same,TGI,[29],> 100 µM
same,TGI,[30],> 100 µM
same,TGI,[31],> 100 µM
same,TGI,[32],> 100 µM
same,TGI,[33],43.9 µM
same,TGI,[34],> 100 µM
same,TGI,[35],21.4 µM
same,TGI,[36],35.8 µM
same,TGI,[37],> 100 µM
same,TGI,[38],> 100 µM
same,TGI,[39],> 100 µM
same,TGI,[40],> 100 µM
same,TGI,[41],> 100 µM
same,TGI,[42],90.7 µM
same,TGI,[43],> 100 µM
same,TGI,[44],51.2 µM
same,TGI,[45],> 100 µM
same,TGI,[46],> 100 µM
same,TGI,[47],> 100 µM
same,TGI,[48],> 100 µM
same,TGI,[49],> 100 µM
same,TGI,[50],> 100 µM
same,TGI,[51],> 100 µM
same,TGI,[52],> 100 µM
same,TGI,[53],> 100 µM
same,TGI,[54],> 100 µM
same,TGI,[55],> 100 µM
same,TGI,[56],> 100 µM
O=S(=O)(O)c1ccc(-c2nnc(-c3ccccn3)nc2-c2ccc(S(=O)(=O)O)o2)o1,TGI,[1],> 100 µM
same,TGI,[2],> 100 µM
same,TGI,[3],> 100 µM
same,TGI,[4],> 100 µM
same,TGI,[5],> 100 µM
same,TGI,[6],> 100 µM
same,TGI,[7],> 100 µM
same,TGI,[8],> 100 µM
same,TGI,[9],> 100 µM
same,TGI,[10],> 100 µM
same,TGI,[11],> 100 µM
same,TGI,[12],> 100 µM
same,TGI,[13],> 100 µM
same,TGI,[14],> 100 µM
same,TGI,[15],> 100 µM
same,TGI,[57],> 100 µM
same,TGI,[16],> 100 µM
same,TGI,[18],> 100 µM
same,TGI,[19],> 100 µM
same,TGI,[20],> 100 µM
same,TGI,[21],> 100 µM
same,TGI,[22],> 100 µM
same,TGI,[23],> 100 µM
same,TGI,[24],> 100 µM
same,TGI,[25],> 100 µM
same,TGI,[26],> 100 µM
same,TGI,[27],> 100 µM
same,TGI,[28],> 100 µM
same,TGI,[29],> 100 µM
same,TGI,[30],> 100 µM
same,TGI,[31],> 100 µM
same,TGI,[32],> 100 µM
same,TGI,[34],> 100 µM
same,TGI,[35],> 100 µM
same,TGI,[36],> 100 µM
same,TGI,[37],> 100 µM
same,TGI,[38],> 100 µM
same,TGI,[39],> 100 µM
same,TGI,[40],> 100 µM
same,TGI,[41],> 100 µM
same,TGI,[42],> 100 µM
same,TGI,[43],> 100 µM
same,TGI,[44],> 100 µM
same,TGI,[45],> 100 µM
same,TGI,[46],> 100 µM
same,TGI,[47],> 100 µM
same,TGI,[48],> 100 µM
same,TGI,[49],> 100 µM
same,TGI,[50],> 100 µM
same,TGI,[51],> 100 µM
same,TGI,[52],> 100 µM
same,TGI,[53],> 100 µM
same,TGI,[54],> 100 µM
same,TGI,[55],> 100 µM
same,TGI,[56],> 100 µM
